Where two headings read alike, the source gives them in different places.
How the values were obtained:
Assay type in all cases: in vivo
[1] = test system: barnyardgrass (Echinochloa crus-galli); assay: Test A pre/postemergence; details: Echinochloa crus-galli, 240 h, read-out: Plant response rating, Barnyardgrass; for pest or weed control at 125 g/ha: 125 g ai/ha; for pest or weed control at 500 g/ha: 500 g ai/ha
Procedure, shortened: (§1)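 Pre/post greenhouse screen; loam/sand soil; solvent + surfactant formulation; pre = directed soil spray at planting, post = 1–2 leaf plants, 2–10 cm; ~10 d; visual 0–100 rating vs untreated.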

[2] = test system: crabgrass (Digitaria sanguinalis); assay: Test A pre/postemergence; details: Digitaria sanguinalis, 240 h, read-out: Plant response rating, Crabgrass; for pest or weed control at 125 g/ha: 125 g ai/ha; for pest or weed control at 500 g/ha: 500 g ai/ha
Procedure, shortened: as §1

[3] = test system: giant foxtail (Setaria faberi); assay: Test A pre/postemergence; details: Setaria faberi, 240 h, read-out: Plant response rating, Foxtail, Giant; for pest or weed control at 125 g/ha: 125 g ai/ha; for pest or weed control at 500 g/ha: 500 g ai/ha
Procedure, shortened: as §1

[4] = test system: morningglory (Ipomoea spp.); assay: Test A pre/postemergence; details: Ipomoea, 240 h, read-out: Plant response rating, Morningglory; for pest or weed control at 125 g/ha: 125 g ai/ha; for pest or weed control at 500 g/ha: 500 g ai/ha
Procedure, shortened: as §1

[5] = test system: redroot pigweed (Amaranthus retroflexus); assay: Test A pre/postemergence; details: Amaranthus retroflexus, 240 h, read-out: Plant response rating, Pigweed; for pest or weed control at 125 g/ha: 125 g ai/ha; for pest or weed control at 500 g/ha: 500 g ai/ha
Procedure, shortened: as §1

[6] = test system: velvetleaf (Abutilon theophrasti); assay: Test A pre/postemergence; details: Abutilon theophrasti, 240 h, read-out: Plant response rating, Velvetleaf; for pest or weed control at 125 g/ha: 125 g ai/ha; for pest or weed control at 500 g/ha: 500 g ai/ha
Procedure, shortened: as §1

[7] = test system: cocklebur (Xanthium strumarium); assay: Test C pre/postemergence; details: Xanthium strumarium, post-emergence, Postemergence
Procedure, shortened: (§2)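 Pre: seeds planted, sprayed same day. Post: 1- to 4-leaf plants (2–18 cm). Formulation: non-phytotoxic solvent + surfactant. Greenhouse 12–14 d; visual % control vs untreated, 0–100.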

[8] = test system: crabgrass (Digitaria sanguinalis); assay: Test C pre/postemergence; details: Digitaria sanguinalis, post-emergence, Postemergence
Procedure, shortened: as §2

[9] = test system: johnsongrass (Sorghum halepense); assay: Test C pre/postemergence; details: Sorghum halepense, post-emergence, Postemergence
Procedure, shortened: as §2

[10] = test system: kochia (Kochia scoparia); assay: Test C pre/postemergence; details: Bassia scoparia, post-emergence, Postemergence
Procedure, shortened: as §2

[11] = test system: pigweed (Amaranthus retroflexus); assay: Test C pre/postemergence; details: Amaranthus retroflexus, post-emergence, Postemergence
Procedure, shortened: as §2

[12] = post-emergence, Postemergence, 0 to 100 scale (0 no effect, 100 complete control)
[13] = pre-emergence, Preemergence, 0 to 100 scale where 0 is no effect and 100 is complete control, approximately ten days

## CCOC(=O)c1nc(-c2ccc(Br)cc2)nc(N)c1Cl [Compound 94, ethyl 6-amino-2-(4-bromophenyl)-5-chloro-4-pyrimidinecarboxylate]
[1]; [12]
  pest or weed control at 125 g/ha: 30%
  pest or weed control at 500 g/ha: 60%
[1]; [13]
  pest or weed control at 125 g/ha: 5%
  pest or weed control at 500 g/ha: 40%
[2]; [12]
  pest or weed control at 125 g/ha: 35%
  pest or weed control at 500 g/ha: 50%
[2]; [13]
  pest or weed control at 125 g/ha: 45%
  pest or weed control at 500 g/ha: 55%
[3]; [12]
  pest or weed control at 125 g/ha: 45%
  pest or weed control at 500 g/ha: 65%
[3]; [13]
  pest or weed control at 125 g/ha: 20%
  pest or weed control at 500 g/ha: 40%
[4]; [12]
  pest or weed control at 125 g/ha: 70%
  pest or weed control at 500 g/ha: 75%
[4]; [13]
  pest or weed control at 125 g/ha: 30%
  pest or weed control at 500 g/ha: 35%
[5]; [12]
  pest or weed control at 125 g/ha: 80%
  pest or weed control at 500 g/ha: 85%
[5]; [13]
  pest or weed control at 125 g/ha: 90%
  pest or weed control at 500 g/ha: 95%
[6]; [12]
  pest or weed control at 125 g/ha: 90%
  pest or weed control at 500 g/ha: 90%
[6]; [13]
  pest or weed control at 125 g/ha: 75%
  pest or weed control at 500 g/ha: 90%
[7]; 16 g ai/ha, read-out: Plant response rating (scale of 0 to 100), Cocklebur
  pest or weed control at 16 g/ha: 75%
[7]; 31 g ai/ha, read-out: Plant response rating (scale of 0 to 100), Cocklebur
  pest or weed control at 31 g/ha: 80%
[7]; 62 g ai/ha, read-out: Plant response rating (scale of 0 to 100), Cocklebur
  pest or weed control at 62 g/ha: 90%
[7]; 125 g ai/ha, scale 0 to 100 (0 no effect, 100 complete control), read-out: Cocklebur plant response rating
  pest or weed control at 125 g/ha: 100%
[8]; 16 g ai/ha, read-out: Plant response rating (scale of 0 to 100), Crabgrass
  pest or weed control at 16 g/ha: 70%
[8]; 31 g ai/ha, read-out: Plant response rating (scale of 0 to 100), Crabgrass
  pest or weed control at 31 g/ha: 80%
[8]; 62 g ai/ha, read-out: Plant response rating (scale of 0 to 100), Crabgrass
  pest or weed control at 62 g/ha: 85%
[8]; 125 g ai/ha, scale 0 to 100 (0 no effect, 100 complete control), read-out: Crabgrass plant response rating
  pest or weed control at 125 g/ha: 85%
[9]; 16 g ai/ha, read-out: Plant response rating (scale of 0 to 100), Johnsongrass
  pest or weed control at 16 g/ha: 55%
[9]; 31 g ai/ha, read-out: Plant response rating (scale of 0 to 100), Johnsongrass
  pest or weed control at 31 g/ha: 60%
[9]; 62 g ai/ha, read-out: Plant response rating (scale of 0 to 100), Johnsongrass
  pest or weed control at 62 g/ha: 75%
[9]; 125 g ai/ha, scale 0 to 100 (0 no effect, 100 complete control), read-out: Johnsongrass plant response rating
  pest or weed control at 125 g/ha: 90%
[10]; 16 g ai/ha, read-out: Plant response rating (scale of 0 to 100), Kochia
  pest or weed control at 16 g/ha: 75%
[10]; 31 g ai/ha, read-out: Plant response rating (scale of 0 to 100), Kochia
  pest or weed control at 31 g/ha: 90%
[10]; 62 g ai/ha, read-out: Plant response rating (scale of 0 to 100), Kochia
  pest or weed control at 62 g/ha: 95%
[10]; 125 g ai/ha, scale 0 to 100 (0 no effect, 100 complete control), read-out: Kochia plant response rating
  pest or weed control at 125 g/ha: 100%
[11]; 16 g ai/ha, read-out: Plant response rating (scale of 0 to 100), Pigweed
  pest or weed control at 16 g/ha: 95%
[11]; 31 g ai/ha, read-out: Plant response rating (scale of 0 to 100), Pigweed
  pest or weed control at 31 g/ha: 100%
[11]; 62 g ai/ha, read-out: Plant response rating (scale of 0 to 100), Pigweed
  pest or weed control at 62 g/ha: 100%
[11]; 125 g ai/ha, scale 0 to 100 (0 no effect, 100 complete control), read-out: Pigweed plant response rating
  pest or weed control at 125 g/ha: 100%
